From patent publication US20230416334A1, “CELL-PENETRATING PEPTIDES” (FUNDACIÓ HOSPITAL UNIVERSITARI VALL D'HEBRON - INSTITUT DE …, priority 2020, published 2023)

How the values were obtained:
[1] = tested on: binding of CD300f to plastic-immobilized SM; test: Peptide inhibition of CD300f-Ig binding to plastic-immobilized sphingomyelin (epitope mapping); design: species or system human; settings: co-incubation of peptide with CD300f-Ig, FIG. 1
From the text: FIG. 1, related to Example 1, is a bar diagram showing the binding capacity of the indicated peptides to sphingomyelin (SM). They y-axis represents absorbance (%). “C” represents the control; “1” represents Peptide 1 of SEQ ID NO: 12; “2” represents Peptide 2 of SEQ ID NO: 13; “3” represents Peptide 3 of SEQ ID NO: 14; “4” represents Peptide 4 of SEQ ID NO: 15; “5” represents Peptide 5 of SEQ ID NO: 5; “6” represents Peptide 6 of SEQ ID NO: 6; “7” represents Peptide 7 of SEQ ID NO: 7; “8” represents Peptide 8 of SEQ ID NO: 16; and “9” represents Peptide 9 of SEQ ID NO: 17; and “10” represents Peptide 10 of SEQ ID NO: 18; FIG. 2, related to Example 1, is a bar diagram showing the binding capacity of the indicated peptides to sphingomyelin (SM). They y-axis represents absorbance (%). “A” represents the control; “B” represents DMSO; “C” represents Peptide 1; “D” represents Peptide 2; “E” represents Peptide 7; “F” represents Peptide 7 C5S (SEQ ID NO: 8); “G” represents Peptide 7 W3A (SEQ ID NO: 9); and “H” represents Peptide 7 R6G (SEQ ID NO: 10). In an attempt to identify the sites of interaction of CD300f with Sphingomyelin (SM), the inventors performed a peptide-based epitope mapping approach. 24 overlapping, 20mer peptides were designed with a 15-aa overlap between successive peptides covering the Ig and stem extracellular sequences of human CD300f. It was analyzed whether any of those 24 peptides could inhibit binding of CD300f to plastic-immobilized SM. Only three of them, peptides 5 (SEQ ID NO:5), 6 (SEQ ID NO:6) and 7 (SEQ ID NO:7), which contained the sequence […] Moreover, different amino acids of the sequence […] NO: 2) were mutated to try to map the interaction with the phospholipid.

HCT116 cells = test: Internalization of 5-DTAF labelled polymeric micelles by flow cytometry; type: cell-based; settings: 1 mg/ml on 5-DTAF labelled Pluronic F127 micelles, vs non conjugated micelles, FIGS. 4 and 5
From the text: FIG. 4, related to Example 2, is a diagram showing the cell internalization rates of polymeric micelles conjugated to the indicated peptides in HCT116 cells. The y-axis represents fluorescence intensity (F.U.) (Mean±SEM) and the x-axis represents the time (min).
FIG. 5, related to Example 2, is a diagram showing the cell internalization rates of polymeric micelles conjugated to the indicated peptides in HCT116 cells. The y-axis represents fluorescence intensity (F.U.) (Mean±SEM) and the x-axis represents the time (min).
Polymeric micelles (PM) were prepared using the film hydration technique. Briefly, the polymers were individually weighted and dissolved in a mixture of methanol:ethanol (1:1). […]
Flow cytometry was used to verify the internalization of 5-DTAF-fluorescently labeled PM in MCF-7 and HCT116 cell lines. For the quantitative fluorescence-activated cell sorting (FACS), 2×10^4 cells were seeded in complete medium in 96 well plates for 24 hours to allow adhesion. […] The plate was analyzed in a cytometer Fortessa (BD Biosciences, USA). Data was analyzed with FCS Express 4 Flow research edition software (De Novo Software, Los Angeles, USA). […] For each sample, at least 10000 individual cells were collected and the mean fluorescence intensity was evaluated. […]

| Molecule | inhibition of binding of CD300f to sphingomyelin (SM) [1] | internalization of peptide- or protein-functionalized micelles (HCT116 cells) |
| --- | --- | --- |
| LKWWCRGAIWRDCKILVKTS [Peptide 7] | inhibited binding |  |
| CVYRSGWETYLKWWCRGAIW [Peptide 5] | inhibited binding |  |
| GWETYLKWWCRGAIWRDCKI [Peptide 6] | inhibited binding |  |
| CD300f: whole CD300f protein, conjugated onto micelles and tested as CPP (protein, UniProt Q8TDQ1 20-290, looked up, conjugated onto micelles, whole CD300f protein, conjugated onto micelles and tested as CPP) CMRF35-like molecule 1: TQITGPTTVNGLERGSLTVQCVYRSGWETYLKWWCRGAIWRDCKILVKTSGSEQEVKRDRVSIKDNQKNRTFTVTMEDLMKTDADTYWCGIEKTGNDLGVTVQVTIDPAPVTQEETSSSPTLTGHHLDNRHKLLKLSVLLPLIFTILLLLLVAASLLAWRMMKYQQKAAGMSPEQVLQPLEGDLCYADLTLQLAGTSPQKATTKLSSAQVDQVEVEYVTMASLPKEDISYASLTLGAEDQEPTYCNMGHLSSHLPGRGPEEPTEYSTISRP |  | better CPPs than the ones currently available in the market |
